# Tests used:
# ALDH1A3 [1] = target: T1, ALDH1A3 (Homo sapiens, UniProt P47895); experiment: DEAB inhibition and IC50 determination; type: biochemical
# T1 sequence (P47895 1-512): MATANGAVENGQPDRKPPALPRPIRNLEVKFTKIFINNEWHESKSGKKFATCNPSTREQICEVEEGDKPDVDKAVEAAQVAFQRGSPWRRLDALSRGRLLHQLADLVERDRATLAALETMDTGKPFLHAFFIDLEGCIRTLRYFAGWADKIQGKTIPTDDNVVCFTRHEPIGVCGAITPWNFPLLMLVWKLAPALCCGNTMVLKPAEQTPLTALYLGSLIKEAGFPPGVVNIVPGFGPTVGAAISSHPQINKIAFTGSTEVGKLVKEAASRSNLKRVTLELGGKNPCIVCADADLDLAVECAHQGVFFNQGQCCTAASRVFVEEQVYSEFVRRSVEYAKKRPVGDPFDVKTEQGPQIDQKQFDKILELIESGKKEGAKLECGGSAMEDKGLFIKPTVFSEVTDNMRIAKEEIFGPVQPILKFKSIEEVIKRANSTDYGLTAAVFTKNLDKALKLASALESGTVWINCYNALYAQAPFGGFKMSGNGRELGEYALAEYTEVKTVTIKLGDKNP
# ALDH1A2 [2] = target: T2, ALDH1A2 (Homo sapiens, UniProt O94788); experiment: DEAB inhibition and IC50 determination; type: biochemical
# T2 sequence (O94788 1-518): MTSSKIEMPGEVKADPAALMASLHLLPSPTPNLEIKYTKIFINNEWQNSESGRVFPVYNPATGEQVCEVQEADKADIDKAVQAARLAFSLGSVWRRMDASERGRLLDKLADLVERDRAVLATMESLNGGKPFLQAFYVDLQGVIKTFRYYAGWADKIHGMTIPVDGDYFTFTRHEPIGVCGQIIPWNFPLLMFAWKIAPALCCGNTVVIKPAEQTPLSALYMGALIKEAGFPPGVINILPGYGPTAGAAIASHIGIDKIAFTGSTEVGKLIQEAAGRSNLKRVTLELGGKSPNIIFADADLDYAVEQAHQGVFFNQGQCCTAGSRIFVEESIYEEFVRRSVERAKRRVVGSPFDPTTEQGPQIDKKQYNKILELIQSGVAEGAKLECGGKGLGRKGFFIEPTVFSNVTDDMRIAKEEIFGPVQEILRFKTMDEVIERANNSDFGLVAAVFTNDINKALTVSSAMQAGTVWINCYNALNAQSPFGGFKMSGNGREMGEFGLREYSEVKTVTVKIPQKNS
# ALDH1L1 [3] = target: T3, ALDH1L1 (Rattus norvegicus, UniProt P28037); experiment: DEAB inhibition and IC50 determination
# T3 sequence (P28037 417-902 limits assumed): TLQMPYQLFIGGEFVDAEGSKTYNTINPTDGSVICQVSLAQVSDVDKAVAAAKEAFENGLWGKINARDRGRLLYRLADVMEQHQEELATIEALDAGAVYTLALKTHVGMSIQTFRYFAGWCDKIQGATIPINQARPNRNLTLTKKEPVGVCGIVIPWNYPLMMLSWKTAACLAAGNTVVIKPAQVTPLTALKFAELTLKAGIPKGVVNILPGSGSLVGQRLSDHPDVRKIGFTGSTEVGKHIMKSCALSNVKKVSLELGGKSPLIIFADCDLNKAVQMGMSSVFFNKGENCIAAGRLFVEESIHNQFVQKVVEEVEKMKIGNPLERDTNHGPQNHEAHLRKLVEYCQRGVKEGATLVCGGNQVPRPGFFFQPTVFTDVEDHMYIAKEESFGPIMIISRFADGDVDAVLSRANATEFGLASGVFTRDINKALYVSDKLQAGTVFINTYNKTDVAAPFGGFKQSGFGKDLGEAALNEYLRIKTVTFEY
# ALDH1A2 [4] = target: T2, ALDH1A2; experiment: Kinetics of irreversible; type: biochemical
# ALDH1A3 [5] = target: T1, ALDH1A3; experiment: Wavelength scans to monitor DEAB oxidation; type: biochemical; conditions: DEAB as substrate of ALDH1A3
# ALDH3A1 [6] = target: T4, ALDH3A1 (Homo sapiens, UniProt P30838); experiment: Enzyme kinetics with DEAB as a substrate; conditions: ALDH3A1 oxidation of the substrate
# T4 sequence (P30838 1-453): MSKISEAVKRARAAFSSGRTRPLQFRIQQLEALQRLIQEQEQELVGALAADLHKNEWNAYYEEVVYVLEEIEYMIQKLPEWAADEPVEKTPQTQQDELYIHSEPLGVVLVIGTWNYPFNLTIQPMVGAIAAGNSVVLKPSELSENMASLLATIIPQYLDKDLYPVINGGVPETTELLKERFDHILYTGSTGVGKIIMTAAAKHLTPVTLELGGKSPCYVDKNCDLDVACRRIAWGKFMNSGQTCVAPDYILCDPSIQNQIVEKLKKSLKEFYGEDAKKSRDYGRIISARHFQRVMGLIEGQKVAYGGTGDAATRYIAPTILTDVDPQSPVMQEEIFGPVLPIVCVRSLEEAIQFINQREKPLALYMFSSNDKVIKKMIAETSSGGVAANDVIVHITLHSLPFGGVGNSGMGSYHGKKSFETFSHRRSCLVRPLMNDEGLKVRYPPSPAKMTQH
# ALDH1A2 [7] = target: T2, ALDH1A2; experiment: Q-TOF mass spectrometry of enzyme modification by DEAB; type: binding; conditions: 5.0 μM ALDH1A2, 10 μM DEAB, without NAD+, 1 h
# ALDH1A2 [8] = target: T2, ALDH1A2; experiment: Effect of dialysis on DEAB-induced inhibition; type: biochemical
# ALDH3A1 [9] = target: T4, ALDH3A1; experiment: Wavelength scans to monitor DEAB oxidation; type: biochemical; conditions: DEAB as substrate of ALDH3A1
# ALDH5A1 [10] = target: T5, ALDH5A1 (Homo sapiens, UniProt P51649); experiment: DEAB inhibition and IC50 determination
# T5 sequence (P51649 48-535): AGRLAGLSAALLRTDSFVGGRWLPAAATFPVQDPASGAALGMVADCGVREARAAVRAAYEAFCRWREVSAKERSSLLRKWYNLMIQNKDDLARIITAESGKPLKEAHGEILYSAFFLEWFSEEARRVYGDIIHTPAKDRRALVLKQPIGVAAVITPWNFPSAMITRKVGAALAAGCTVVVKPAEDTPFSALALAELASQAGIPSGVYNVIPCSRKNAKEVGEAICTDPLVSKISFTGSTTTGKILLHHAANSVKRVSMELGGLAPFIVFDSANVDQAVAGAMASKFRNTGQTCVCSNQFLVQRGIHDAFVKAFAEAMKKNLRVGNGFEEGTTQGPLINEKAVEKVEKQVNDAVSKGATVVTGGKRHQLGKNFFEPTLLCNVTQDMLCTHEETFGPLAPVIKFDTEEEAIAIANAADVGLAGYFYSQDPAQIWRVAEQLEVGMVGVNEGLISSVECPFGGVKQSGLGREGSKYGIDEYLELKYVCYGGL
# ALDH1L1 [11] = target: T3, ALDH1L1; experiment: Wavelength scans to monitor DEAB oxidation; type: biochemical; conditions: DEAB as substrate of ALDH1L1
# ALDH1B1 [12] = target: T6, ALDH1B1 (Homo sapiens, UniProt P30837); experiment: Wavelength scans to monitor DEAB oxidation; type: biochemical; conditions: DEAB as substrate of ALDH1B1
# T6 sequence (P30837 18-517): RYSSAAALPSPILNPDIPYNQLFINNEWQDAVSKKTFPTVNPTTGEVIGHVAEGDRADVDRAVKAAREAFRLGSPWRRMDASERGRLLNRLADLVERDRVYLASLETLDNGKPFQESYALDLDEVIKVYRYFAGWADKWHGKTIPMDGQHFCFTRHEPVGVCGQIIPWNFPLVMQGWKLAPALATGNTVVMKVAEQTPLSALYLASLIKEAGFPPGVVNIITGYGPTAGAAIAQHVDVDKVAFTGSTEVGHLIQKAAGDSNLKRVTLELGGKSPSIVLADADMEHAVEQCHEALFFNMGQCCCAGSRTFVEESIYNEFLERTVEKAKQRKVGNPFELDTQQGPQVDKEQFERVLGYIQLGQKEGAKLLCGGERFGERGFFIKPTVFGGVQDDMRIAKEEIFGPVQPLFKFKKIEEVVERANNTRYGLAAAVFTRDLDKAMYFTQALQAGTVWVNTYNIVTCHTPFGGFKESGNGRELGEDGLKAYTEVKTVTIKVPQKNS
# ALDH5A1 [13] = target: T5, ALDH5A1; experiment: Wavelength scans to monitor DEAB oxidation; type: biochemical; conditions: DEAB as substrate of ALDH5A1
# ALDH1A2 [14] = target: T2, ALDH1A2; experiment: Wavelength scans to monitor DEAB oxidation; type: biochemical; conditions: DEAB as substrate of ALDH1A2
# ALDH1B1 [15] = target: T6, ALDH1B1; experiment: DEAB inhibition and IC50 determination; type: biochemical
# ALDH4A1 [16] = target: T7, ALDH4A1 (Homo sapiens, UniProt P30038); experiment: DEAB inhibition and IC50 determination
# T7 sequence (P30038 25-563): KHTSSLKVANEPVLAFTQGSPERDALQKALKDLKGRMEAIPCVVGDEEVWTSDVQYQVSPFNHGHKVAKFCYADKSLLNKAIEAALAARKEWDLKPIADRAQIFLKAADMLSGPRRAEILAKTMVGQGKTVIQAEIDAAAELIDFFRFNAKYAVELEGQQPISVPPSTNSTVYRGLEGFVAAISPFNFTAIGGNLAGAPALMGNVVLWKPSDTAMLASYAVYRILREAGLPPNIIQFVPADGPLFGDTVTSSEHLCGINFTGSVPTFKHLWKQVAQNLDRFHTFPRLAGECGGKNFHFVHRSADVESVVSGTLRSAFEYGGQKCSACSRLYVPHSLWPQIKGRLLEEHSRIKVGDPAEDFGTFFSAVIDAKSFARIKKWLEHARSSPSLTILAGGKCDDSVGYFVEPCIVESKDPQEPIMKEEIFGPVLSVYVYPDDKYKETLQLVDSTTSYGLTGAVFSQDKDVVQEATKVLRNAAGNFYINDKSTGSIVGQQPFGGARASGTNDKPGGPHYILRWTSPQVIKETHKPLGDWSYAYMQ
# ALDH4A1 [17] = target: T7, ALDH4A1; experiment: Wavelength scans to monitor DEAB oxidation; type: biochemical; conditions: DEAB as substrate of ALDH4A1
structure (smiles),measurement,setting,value
CCN(CC)c1ccc(C=O)cc1 [DEAB],IC50,ALDH1A3 [1],3 ± 0.3 µM
same,IC50,ALDH1A2 [2],1200 ± 100 nM
same,IC50,ALDH1L1 [3],> 20 µM
same,Mode of inhibition,ALDH1A2 [4],Covalent inhibitor
same,Substrate,ALDH1A3 [5],Yes (slow)
same,Km,ALDH3A1 [6],5.6 ± 0.7 µM
same,fraction of enzyme with DEAB bound,ALDH1A2 [7],approximately one-third
same,activity at 100 µM,"ALDH1A2 [8]; 0.5 h, pH 7.5, read-out: activity recovered after dialysis",75%
same,recovery of enzymatic activity after dialysis,"ALDH1A2 [8]; ALDH1A2, pre-incubated with DEAB and NAD+, dialyzed 4 h",neither the ALDH2 nor the ALDH1A2 samples regained enzymatic activity
same,Substrate,ALDH3A1 [9],Yes
same,IC50,ALDH5A1 [10],13 ± 0.5 µM
same,Substrate,ALDH1L1 [11],No
same,Substrate,ALDH1B1 [12],Yes (slow)
same,Substrate,ALDH5A1 [13],Yes (slow)
same,Substrate,ALDH1A2 [14],No
same,IC50,ALDH1B1 [15],1200 ± 100 nM
same,IC50,ALDH4A1 [16],> 20 µM
same,Substrate,ALDH4A1 [17],No
